{"source": "ChEMBL document CHEMBL1201862", "about": "“PubChem BioAssay data set” (2004)", "key": {"[1]": {"assay": "cells", "assay_type": "functional, cell-based"}, "[2]": {"assay": "cells", "assay_type": "functional, cell-based", "remark": "listed apart in the source"}, "[3]": {"assay": "HIV-1 Vif–A3G interaction blockers – biochemical, TR-FRET, GST-Vif 1-94, biotin-A3G peptide, dose response retest, primary screen (AID 1117319);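 note: TR-FRET signal of purified GST-Vif binding a biotinylated A3G peptide; inhibitors lower the FRET signal by blocking Vif and A3G binding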", "assay_type": "functional"}, "[4]": {"molecular_target": "Nonstructural protein 1 (Influenza A virus, UniProt Q194T2)", "sequence (Q194T2 whole entry)": "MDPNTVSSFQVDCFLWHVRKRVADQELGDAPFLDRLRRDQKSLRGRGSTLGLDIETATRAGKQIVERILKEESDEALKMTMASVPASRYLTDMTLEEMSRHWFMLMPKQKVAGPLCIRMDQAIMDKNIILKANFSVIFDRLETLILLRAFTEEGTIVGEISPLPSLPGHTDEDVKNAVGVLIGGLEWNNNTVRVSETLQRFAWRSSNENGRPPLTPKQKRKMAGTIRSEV", "assay_type": "functional, Influenza A virus (A/California/07/2009(H1N1))"}, "[5]": {"molecular_target": "Heat shock protein HSP 90-alpha (Homo sapiens, UniProt P07900)", "assay_type": "functional, organism-based"}, "[6]": {"molecular_target": "Genome polyprotein (dengue virus type 2, UniProt P29990)", "sequence (P29990 2492-3391 limits assumed)": "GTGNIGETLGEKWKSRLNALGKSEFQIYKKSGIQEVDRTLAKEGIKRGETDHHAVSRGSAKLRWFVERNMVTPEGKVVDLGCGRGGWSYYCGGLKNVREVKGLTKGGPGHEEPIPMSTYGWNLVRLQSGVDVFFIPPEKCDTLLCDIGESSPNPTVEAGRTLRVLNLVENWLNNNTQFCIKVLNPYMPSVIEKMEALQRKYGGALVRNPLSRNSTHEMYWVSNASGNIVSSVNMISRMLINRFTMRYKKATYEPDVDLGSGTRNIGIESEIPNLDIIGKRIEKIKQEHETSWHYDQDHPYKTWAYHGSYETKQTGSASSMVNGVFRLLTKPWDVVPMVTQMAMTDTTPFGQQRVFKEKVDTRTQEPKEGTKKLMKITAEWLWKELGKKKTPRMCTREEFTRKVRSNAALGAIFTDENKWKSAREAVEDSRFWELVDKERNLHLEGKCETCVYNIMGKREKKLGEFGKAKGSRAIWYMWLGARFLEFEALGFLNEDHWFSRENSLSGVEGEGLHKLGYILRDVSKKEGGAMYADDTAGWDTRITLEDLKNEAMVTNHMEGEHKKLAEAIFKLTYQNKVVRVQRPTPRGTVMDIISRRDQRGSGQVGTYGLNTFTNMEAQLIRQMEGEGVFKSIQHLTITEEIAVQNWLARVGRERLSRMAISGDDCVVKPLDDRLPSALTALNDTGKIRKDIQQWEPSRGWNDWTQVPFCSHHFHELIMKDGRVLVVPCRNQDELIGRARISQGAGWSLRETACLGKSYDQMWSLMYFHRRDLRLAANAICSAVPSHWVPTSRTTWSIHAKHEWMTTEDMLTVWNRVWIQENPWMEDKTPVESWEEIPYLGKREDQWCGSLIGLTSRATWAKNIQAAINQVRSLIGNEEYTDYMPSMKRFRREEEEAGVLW", "assay": "flavivirus cap methylation enzyme inhibition – biochemical, confirmation dose response, primary screen (AID 588689)", "assay_type": "functional"}, "[7]": {"assay": "blockers of CRF-binding protein–CRF-R2 complex – cell-based, uHTS hits, 384-well, dose response (AID 651639)", "assay_type": "functional, Homo sapiens", "conditions": "read-out: IC50_Mean"}, "[8]": {"molecular_target": "T1, Corticotropin-releasing factor receptor 2/Corticotropin-releasing factor-binding protein (Homo sapiens, UniProt P24387+Q13324)", "T1 sequence (Q13324 whole entry)": "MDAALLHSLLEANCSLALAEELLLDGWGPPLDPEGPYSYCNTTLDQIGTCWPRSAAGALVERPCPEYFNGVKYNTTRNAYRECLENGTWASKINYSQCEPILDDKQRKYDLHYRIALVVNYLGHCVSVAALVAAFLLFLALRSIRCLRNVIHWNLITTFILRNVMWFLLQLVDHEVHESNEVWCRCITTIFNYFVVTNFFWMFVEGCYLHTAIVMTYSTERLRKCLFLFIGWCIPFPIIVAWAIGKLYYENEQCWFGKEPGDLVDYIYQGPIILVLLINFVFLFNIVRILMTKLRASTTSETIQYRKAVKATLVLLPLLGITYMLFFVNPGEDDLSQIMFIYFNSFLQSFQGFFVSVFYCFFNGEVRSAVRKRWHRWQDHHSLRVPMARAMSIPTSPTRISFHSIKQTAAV", "T1 sequence (P24387 whole entry)": "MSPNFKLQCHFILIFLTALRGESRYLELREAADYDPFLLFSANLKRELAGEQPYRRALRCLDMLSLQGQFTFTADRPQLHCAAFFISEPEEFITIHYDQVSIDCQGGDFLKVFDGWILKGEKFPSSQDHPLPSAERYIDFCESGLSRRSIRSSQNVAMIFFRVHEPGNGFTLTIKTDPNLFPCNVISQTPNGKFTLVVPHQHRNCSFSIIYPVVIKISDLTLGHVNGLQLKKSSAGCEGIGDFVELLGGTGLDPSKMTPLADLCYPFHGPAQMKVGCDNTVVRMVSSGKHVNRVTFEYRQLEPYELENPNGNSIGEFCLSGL", "assay": "activators of CRF receptor 2 with binding protein – uHTS hits, confirmation (AID 602473)", "assay_type": "functional", "conditions": "read-out: EC50_Mean"}, "[9]": {"molecular_target": "T1, Corticotropin-releasing factor receptor 2/Corticotropin-releasing factor-binding protein", "assay": "Dose Response confirmation of uHTS hits for small molecule antagonists of the CRF-binding protein and CRF-R2 receptor complex.", "assay_type": "functional", "conditions": "read-out: IC50_Mean"}, "[10]": {"assay": "toxicity toward HepG2 liver cells – cell-based, plate reader, cherry-pick, antagonist series, cytotoxicity control, dose response (AID 743416)", "assay_type": "functional"}, "[11]": {"assay": "blockers of bursicon-stimulated LGR2 cAMP reporter – cell-based, HEK293, CRE-luciferase reporter, cherry pick, set 2, dose response (AID 743343);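 note: transfected cells were stimulated with diluted bursicon conditioned medium after compound addition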", "assay_type": "functional"}, "[12]": {"assay": "A549 cell cytotoxicity, dose response, cytotoxicity control, plate reader, cherry-pick, antagonist series (AID 743412)", "assay_type": "functional, cell-based"}, "[13]": {"assay": "blockade of melanocortin 4 receptor signaling – cell-based, plate reader, cherry pick, counter-screen for LGR2 antagonist project, dose response (AID 743444);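 note: transfected HEK 293 cells stimulated with alpha-MSH peptide; potency of inhibitors of the alpha-MSH evoked signal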", "assay_type": "functional"}, "[14]": {"molecular_target": "T2, Zinc finger protein mex-5 (Caenorhabditis elegans, UniProt Q9XUB2)", "T2 sequence (Q9XUB2 whole entry)": "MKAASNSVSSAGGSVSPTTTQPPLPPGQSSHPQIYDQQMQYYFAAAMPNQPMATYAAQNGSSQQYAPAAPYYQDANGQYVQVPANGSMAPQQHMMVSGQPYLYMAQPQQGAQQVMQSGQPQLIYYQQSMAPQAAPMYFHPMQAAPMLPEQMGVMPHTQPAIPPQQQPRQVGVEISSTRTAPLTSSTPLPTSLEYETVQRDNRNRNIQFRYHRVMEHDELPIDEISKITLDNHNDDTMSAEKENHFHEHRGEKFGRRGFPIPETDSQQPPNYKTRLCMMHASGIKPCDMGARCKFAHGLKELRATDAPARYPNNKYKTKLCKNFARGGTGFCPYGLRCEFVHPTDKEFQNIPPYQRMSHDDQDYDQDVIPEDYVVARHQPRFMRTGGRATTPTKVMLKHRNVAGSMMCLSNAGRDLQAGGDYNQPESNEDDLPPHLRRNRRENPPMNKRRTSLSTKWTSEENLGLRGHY", "assay": "potency of MEX-5 RNA-binding blockers – biochemical, C. elegans, fluorescence polarization, dose response (AID 1960)"}, "[15]": {"molecular_target": "T3, RNA-binding protein pos-1 (Caenorhabditis elegans, UniProt G5EF15)", "T3 sequence (G5EF15 whole entry)": "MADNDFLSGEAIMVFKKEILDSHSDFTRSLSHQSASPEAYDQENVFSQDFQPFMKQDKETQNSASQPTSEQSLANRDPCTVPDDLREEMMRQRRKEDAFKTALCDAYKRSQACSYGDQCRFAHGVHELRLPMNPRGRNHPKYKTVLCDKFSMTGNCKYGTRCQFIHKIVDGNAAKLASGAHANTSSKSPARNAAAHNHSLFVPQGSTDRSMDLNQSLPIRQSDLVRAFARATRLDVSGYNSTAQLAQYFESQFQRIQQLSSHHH", "assay": "disruptors of C. elegans POS-1 RNA interaction – biochemical, fluorescence polarization, dose response (AID 1964);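 note: purified POS-1 fused to maltose binding protein made in E. coli; potency of compounds blocking POS-1 binding to fluorescent RNA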"}, "[16]": {"assay": "Luminescence Cell-Based Dose Confirmation to Identify Activators of 5'UTR Stem-Loop Driven Alpha-Synuclein mRNA Translation in H4 Neuroglioblastoma Cells. [Related pubchem assays: 1829 (Project Summary), 1814 (Primary HTS)]", "assay_type": "functional"}, "[17]": {"assay": "Luminescence Cell-Based Dose Response to Identify Activators of 5'UTR Stem-Loop Driven Prion Protein mRNA Translation in H4-C Neuroglioblastoma Cells. [Related pubchem assays: 1829 (Project Summary), 1814 (Primary HTS)]", "assay_type": "functional"}, "[18]": {"assay": "Luminescence Cell-Based Dose Response HTS to Identify Activators of Luciferase Translation or Activity in H4 […] Cells. [Related pubchem assays: 1829 (Project Summary), 1814 (Primary HTS)]", "assay_type": "functional"}, "[19]": {"assay": "cells", "assay_type": "functional"}, "[20]": {"assay": "Luminescence Cell-Based Dose Response to Identify Activators of Luciferase Translation or Activity in H4-C Neuroglioblastoma Cells. [Related pubchem assays: 1829 (Project Summary), 1814 (Primary HTS)]", "assay_type": "functional"}, "[21]": {"tested_on": "H4", "assay": "Luminescence Cell-Based Dose Response HTS to Identify Activators of 5'UTR Stem-Loop Driven Prion Protein mRNA Translation in H4 Neuroglioblastoma Cells. [Related pubchem assays: 1829 (Project Summary), 1814 (Primary HTS)]", "assay_type": "functional", "conditions": "Homo sapiens"}}, "note": "Calls of active or inactive are those of the source."}
{"compound": "Cc1nc2nc(-c3ccco3)nn2c(C)c1Cl", "values": [{"measurement": "EC50", "setting": "[1]", "value": "> 350 µM (not active)"}, {"measurement": "EC50", "setting": "[2]", "value": "> 350 µM (not active)"}, {"measurement": "IC50", "setting": "[3]", "value": "> 100 µM (active)"}]}
{"compound": "CC(=NNC(=S)N(Cc1ccccn1)Cc1ccccn1)c1cnccn1", "values": [{"measurement": "IC50", "setting": "[4]", "value": "1.18 µM (active)"}, {"measurement": "AC50", "setting": "[5]", "value": "3.3 µM (active)"}]}
{"compound": "Oc1c(C(c2ccccc2)N2CCOCC2)ccc2ccccc12", "note": "(stereo not drawn)", "values": [{"measurement": "AC50", "setting": "[5]", "value": "7.26 µM (active)"}]}
{"compound": "C#CCOc1ccc(/C=C2/C(=O)N(c3ccc(S(N)(=O)=O)cc3)N=C2C)cc1OC", "values": [{"measurement": "IC50", "setting": "[6]", "value": "> 100 µM (active)"}]}
{"compound": "COc1ccc(NC(=O)CN2CCC(C(N)=O)CC2)cc1", "values": [{"measurement": "IC50", "setting": "[3]", "value": "> 100 µM (active)"}]}
{"compound": "S=C(NCCc1ccccc1)N1CCC2CC1c1c(Cl)cccc12", "note": "(stereo not drawn)", "values": [{"measurement": "IC50", "setting": "[7]", "value": "> 20 µM (inactive)"}, {"measurement": "EC50", "setting": "[8]", "value": "> 53 µM (inactive)"}, {"measurement": "IC50", "setting": "[9]", "value": "28.9 µM (active)"}]}
{"compound": "Cc1cs/c(=N\\c2ccccc2)n1Cc1ccco1", "values": [{"measurement": "IC50", "setting": "[7]", "value": "> 20 µM (inactive)"}, {"measurement": "EC50", "setting": "[8]", "value": "> 53 µM (inactive)"}, {"measurement": "IC50", "setting": "[9]", "value": "38.4 µM (active)"}]}
{"compound": "Cc1cc(C)n2c(Nc3ccc4c(c3)OCCO4)c(-c3cc4ccccc4o3)nc2n1", "values": [{"measurement": "AC50", "setting": "[10]", "value": "> 52 µM (inactive)"}, {"measurement": "AC50", "setting": "[11]", "value": "12.7 µM (active)"}, {"measurement": "AC50", "setting": "[12]", "value": "29.8 µM (active)"}, {"measurement": "AC50", "setting": "[13]", "value": "22.8 µM (active)"}]}
{"compound": "CC1C/C(=N/N2C(=O)CSC2=S)CC(C)(C)C1", "note": "(stereo not drawn)", "values": [{"measurement": "IC50", "setting": "[3]", "value": "> 100 µM (active)"}]}
{"compound": "COc1ccc(/C=c2\\sc3nc(=O)c(C)nn3c2=O)c(OC)c1", "values": [{"measurement": "EC50", "setting": "[14]", "value": "88 µM (active)"}, {"measurement": "EC50", "setting": "[15]", "value": "> 300 µM (not active)"}, {"measurement": "IC50", "setting": "[6]", "value": "22.1 µM (active)"}]}
{"compound": "Cc1ccc(NC(=O)ON=C2CCCC2)cc1", "values": [{"measurement": "EC50", "setting": "[16]", "value": "0.547 µM (active)"}, {"measurement": "EC50", "setting": "[17]", "value": "1.53 µM (active)"}, {"measurement": "EC50", "setting": "[18]", "value": "0.777 µM (active)"}, {"measurement": "IC50", "setting": "[19]", "value": "43.2 µM (active)"}, {"measurement": "EC50", "setting": "[20]", "value": "0.501 µM (active)"}, {"measurement": "EC50", "setting": "[21]", "value": "> 120 µM (not active)"}]}
